Measured values taken from patent publication US20090143279A1 (priority 2007, published 2009).
Where two headings read alike, the source gives them in different places.

How the values were obtained:
[1] = system: mitochondrial membrane potential; format: cell-based, mouse; details: for ΔΨm (composite Z-score): normalized score vs mock-treated (DMSO) wells
[2] = system: reactive oxygen species; format: cell-based, mouse; details: for ROS (composite Z-score): normalized score vs mock-treated (DMSO) wells
[3] = system: OXPHOS gene expression; format: cell-based, mouse; details: for GE-HTS (composite Z-score): normalized score vs mock-treated (DMSO) wells
[4] = system: nuOXPHOS transcripts; format: cell-based, mouse; details: for nucOX (composite Z-score): normalized score vs mock-treated (DMSO) wells
[5] = system: mtOXPHOS transcripts; format: cell-based, mouse; details: for mitoOX (composite Z-score): normalized score vs mock-treated (DMSO) wells
[6] = system: cytochrome c; format: cell-based, mouse; details: for cyt c (composite Z-score): normalized score vs mock-treated (DMSO) wells
[7] = system: C2C12 myotubes; details: for Viability (composite Z-score): normalized score vs mock-treated (DMSO) wells
[8] = system: cellular dehydrogenase activity; details: for MTT (composite Z-score): normalized score vs mock-treated (DMSO) wells
[9] = composite Z-score vs DMSO, Conc 20 μM
[10] = 20 μM, composite Z-score vs DMSO
[11] = composite Z-score vs mock-treated (DMSO) wells, Conc 20 μM
[12] = composite Z-score vs DMSO wells, Conc 20 μM
[13] = normalized composite Z-score vs mock-treated (DMSO) wells, Conc 20 μM
[14] = composite Z-score vs mock-treated (DMSO) wells, concentration of each compound in μM
[15] = Table 4, C2C12 myotubes, 48 h, composite Z-score

Sequence of cytochrome c (P62897 whole entry): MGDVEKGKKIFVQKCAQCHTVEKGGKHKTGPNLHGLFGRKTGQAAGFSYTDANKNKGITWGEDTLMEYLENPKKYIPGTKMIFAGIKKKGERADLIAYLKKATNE

CO[C@H]1C[C@H](O[C@H]2[C@H](C)[C@@H](O[C@@H]3O[C@H](C)C[C@H](N(C)C)[C@H]3OC(C)=O)[C@@H](C)C[C@@]3(CO3)C(=O)[C@H](C)[C@@H](OC(C)=O)[C@@H](C)[C@@H](C)OC(=O)[C@@H]2C)O[C@@H](C)[C@@H]1OC(C)=O [troleandomycin]
ΔΨm [1, 9]: −0.780
ROS [2, 9]: 0.099
GE-HTS [3, 9]: −1.234
nucOX [4, 9]: −1.277
mitoOX [5, 9]: −0.905
cyt c [6, 9]: −0.063
Viability [7, 9]: −1.520
MTT [8, 9]: −1.250

C=C(C)C1Cc2c(ccc(C(=O)O)c2O)O1 (stereo not drawn) [tubaic acid]
ΔΨm (composite Z-score) ([1]; Conc 20 μM): −0.489
ROS (composite Z-score) ([2]; Conc 20 μM): 0.646
GE-HTS (composite Z-score) ([3]; Conc 20 μM): −0.746
nucOX (composite Z-score) ([4]; Conc 20 μM): −1.065
mitoOX (composite Z-score) ([5]; Conc 20 μM): 0.070
cyt c (composite Z-score) ([6]; Conc 20 μM): 0.089
Viability (composite Z-score) ([7]; Conc 20 μM): −0.569
MTT (composite Z-score) ([8]; Conc 20 μM): 0.150

CC(C)(C)NCC(O)c1ccccc1Cl (stereo not drawn) [tulobuterol]
ΔΨm [1, 10]: −1.186
ROS [2, 10]: 0.569
GE-HTS [3, 10]: −0.101
nucOX [4, 10]: −0.257
mitoOX [5, 10]: 0.258
cyt c [6, 10]: 0.326
Viability [7, 10]: −0.239
MTT [8, 10]: −0.706

C[C@H](CCC(=O)O)[C@H]1CC[C@H]2[C@@H]3CC[C@@H]4CCCC[C@]4(C)[C@H]3CC[C@]12C [ursocholanic acid]
ΔΨm [1, 9]: −1.738
ROS [2, 9]: 0.978
GE-HTS [3, 9]: −0.920
nucOX [4, 9]: −0.946
mitoOX [5, 9]: −0.657
cyt c [6, 9]: 1.303
Viability [7, 9]: 0.050
MTT [8, 9]: −0.246

CCC(C)C(=O)O[C@@H]1C[C@@]2(C)[C@H](c3ccoc3)OC(=O)CC23OC2(C)O[C@]14[C@]1(C)[C@@H](CC(=O)OC)C5(C)CC1(O)[C@](O)(C5OC(=O)C1(C)OC1C)[C@@H](OC(C)=O)[C@]34O2 (stereo partly drawn) [utilin]
ΔΨm [1, 11]: −0.122
ROS [2, 11]: 0.482
GE-HTS [3, 11]: −0.939
nucOX [4, 11]: −0.861
mitoOX [5, 11]: −0.975
cyt c [6, 11]: −0.038
Viability [7, 11]: 1.131
MTT [8, 11]: −1.571

COC(=O)/C(=C1/OC(=O)C(c2ccccc2)=C1O)c1ccccc1 [vulpinic acid]
ΔΨm [1, 10]: −3.484
ROS [2, 10]: 1.407
GE-HTS [3, 10]: −0.152
nucOX [4, 10]: 0.168
mitoOX [5, 10]: −0.792
cyt c [6, 10]: 1.037
Viability [7, 10]: −1.120
MTT [8, 10]: 0.403

CC1(C)C=Cc2cc3ccc(=O)oc3cc2O1 [xanthyletin]
ΔΨm [1, 11]: −0.220
ROS [2, 11]: 0.217
GE-HTS [3, 11]: 1.029
nucOX [4, 11]: 0.924
mitoOX [5, 11]: 1.085
cyt c [6, 11]: −0.029
Viability [7, 11]: −0.674
MTT [8, 11]: −1.741

COC(=O)[C@@H]1[C@H]2C[C@H]3c4[nH]c5ccccc5c4CCN3C[C@@H]2CC[C@@H]1O [yohimbine]
ΔΨm [1]: −1.197
ROS [2]: 0.159
GE-HTS [3]: −0.041
nucOX [4]: 0.169
mitoOX [5]: −0.471
cyt c [6]: 0.699
Viability [7]: −0.860
MTT [8]: −1.915

CCCOc1ccccc1-c1nc2nn[nH]c2c(=O)[nH]1 [zaprinast]
ΔΨm [1, 12]: −0.347
ROS [2, 12]: −0.482
GE-HTS [3, 12]: 0.076
nucOX [4, 12]: 0.220
mitoOX [5, 12]: −0.234
cyt c [6, 12]: 0.226
Viability [7, 12]: 0.602
MTT [8, 12]: −1.175

CC(C)(O)[C@H]1CC[C@]2(C)[C@H]3CC[C@@H]4[C@@]5(C)CCCC(C)(C)[C@@H]5[C@@H](O)C[C@@]4(C)[C@]3(C)CC[C@@H]12 [zeorin]
ΔΨm [1, 13]: −0.941
ROS [2, 13]: 0.166
GE-HTS [3, 13]: 0.381
nucOX [4, 13]: 0.278
mitoOX [5, 13]: 0.571
cyt c [6, 13]: 0.088
Viability [7, 13]: 0.495
MTT [8, 13]: −0.387

(−)-asarinin
ΔΨm [1, 9]: −0.439
ROS [2, 9]: −0.229
GE-HTS [3, 9]: −1.167
nucOX [4, 9]: −0.726
mitoOX [5, 9]: −1.858
cyt c [6, 9]: 0.607
Viability [7, 9]: −0.632
MTT [8, 9]: −0.505

avermectin B1
ΔΨm [1, 9]: −0.336
ROS [2, 9]: 2.442
GE-HTS [3, 9]: 0.198
nucOX [4, 9]: 0.170
mitoOX [5, 9]: 0.295
cyt c [6, 9]: 0.116
Viability [7, 9]: 0.129
MTT [8, 9]: −0.284

avocatin A
ΔΨm [1, 14]: −0.057
ROS [2, 14]: 0.404
GE-HTS [3, 14]: −1.145
nucOX [4, 14]: −1.066
mitoOX [5, 14]: −1.140
cyt c [6, 14]: 0.849
Viability [7, 14]: 0.133
MTT [8, 14]: −0.249

avocatin B
ΔΨm [1, 14]: 0.024
ROS [2, 14]: 1.229
GE-HTS [3, 14]: −0.935
nucOX [4, 14]: −0.863
mitoOX [5, 14]: −0.852
cyt c [6, 14]: 0.710
Viability [7, 14]: −0.869
MTT [8, 14]: −1.119

beta-escin
ΔΨm (composite Z-score) ([1]; Conc 20 μM): −3.416
ROS (composite Z-score) ([2]; Conc 20 μM): −3.107
GE-HTS (composite Z-score) ([3]; Conc 20 μM): −0.914
nucOX (composite Z-score) ([4]; Conc 20 μM): −0.883
mitoOX (composite Z-score) ([5]; Conc 20 μM): −0.745
cyt c (composite Z-score) ([6]; Conc 20 μM): −5.117
Viability (composite Z-score) ([7]; Conc 20 μM): −5.049
MTT (composite Z-score) ([8]; Conc 20 μM): −5.088

beta-sitosterol
ΔΨm [1, 9]: −0.679
ROS [2, 9]: 0.049
GE-HTS [3, 9]: 0.098
nucOX [4, 9]: 0.046
mitoOX [5, 9]: 0.218
cyt c [6, 9]: 0.061
Viability [7, 9]: −0.768
MTT [8, 9]: −1.974

caryophyllene
ΔΨm (composite Z-score) ([1]; Conc 20 μM): 1.045
ROS (composite Z-score) ([2]; Conc 20 μM): 0.996
GE-HTS (composite Z-score) ([3]; Conc 20 μM): 0.119
nucOX (composite Z-score) ([4]; Conc 20 μM): 0.216
mitoOX (composite Z-score) ([5]; Conc 20 μM): −0.100
cyt c (composite Z-score) ([6]; Conc 20 μM): −0.121
Viability (composite Z-score) ([7]; Conc 20 μM): −0.255
MTT (composite Z-score) ([8]; Conc 20 μM): −0.525

colistin
ΔΨm [1, 14]: −0.746
ROS [2, 14]: 0.501
GE-HTS [3, 14]: −0.341
nucOX [4, 14]: −0.016
mitoOX [5, 14]: −0.939
cyt c [6, 14]: 0.409
Viability [7, 14]: 0.940
MTT [8, 14]: −1.283

dihydromundulone [reference compound]
ΔΨm ([1]; Table 4, C2C12 myotubes, 48 h, JC-1, composite Z-score): −0.530
ΔΨm [1, 13]: −0.530
ROS [2, 15]: 0.537
ROS [2, 13]: 0.537
GE-HTS [3, 13]: 0.414
nucOX [4, 13]: 0.513
mitoOX [5, 13]: 0.168
cyt c [6, 13]: −0.210
Viability [7, 15]: 0.816
Viability [7, 13]: 0.816
MTT [8, 15]: 0.189
MTT [8, 13]: 0.189

estrone hemisuccinate
ΔΨm [1, 12]: −0.573
ROS [2, 12]: 0.834
GE-HTS [3, 12]: 0.261
nucOX [4, 12]: 0.370
mitoOX [5, 12]: −0.003
cyt c [6, 12]: 0.250
Viability [7, 12]: −0.076
MTT [8, 12]: −0.686

gentamicin sulfate
ΔΨm [1, 9]: −1.213
ROS [2, 9]: 0.369
GE-HTS [3, 9]: −0.117
nucOX [4, 9]: −0.267
mitoOX [5, 9]: 0.188
cyt c [6, 9]: −0.896
Viability [7, 9]: −0.804
MTT [8, 9]: −0.150

ginkgolic acid
ΔΨm [1, 9]: −0.905
ROS [2, 9]: −0.116
GE-HTS [3, 9]: −0.062
nucOX [4, 9]: −0.315
mitoOX [5, 9]: 0.505
cyt c [6, 9]: 0.587
Viability [7, 9]: −0.686
MTT [8, 9]: −0.461
